What follows are compounds tested against T1, P2X2/P2X3 heterotrimeric receptor (Homo sapiens) (UniProt Q9UBL9+P56373) (assay: Antagonist activity against human P2X2/3 receptor expressed in HEK293/1321N1 cells assessed as inhibition of alpha,beta-meATP/ATP-induced calcium influx at 3 uM by Fluo-4 dye based FLIPR assay).
Type: functional, cell-based

SMILES | inhibition [%]
Cc1ccc(CN(C)c2ncnc3c2CN(c2ccc(C)cn2)CC3)cc1 | 25
COc1ccc(CN(C)c2ncnc3c2CN(c2ccc(C)cn2)CC3)cc1 | 0
Cc1ccc(N2CCc3ncnc(N(C)Cc4ccc(Cl)cc4)c3C2)nc1 | 0
Cc1ccc(N2CCc3ncnc(NCc4cccc(F)c4F)c3C2)nc1 | > 75
Cc1ccc(N2CCc3ncnc(NCc4cc(Cl)ccc4F)c3C2)nc1 | 50
Cc1ccc(N2CCc3ncnc(NCc4ccccc4OC(F)F)c3C2)nc1 | > 75
COc1ccc(CCNc2ncnc3c2CN(c2ccc(C)cn2)CC3)cc1 | > 75
Cc1ccc(N2CCc3ncnc(NCc4ccc5c(c4)OCO5)c3C2)nc1 | > 75
CN1CC(C)(C)c2ccc(Nc3ncnc4c3CN(c3ncccc3Cl)CC4)cc21 | 0
Cc1ccc(N2CCc3ncnc(NCc4ccc(F)c(F)c4)c3C2)nc1 | > 75
Cc1ccc(N2CCc3ncnc(NCCc4ccccc4Cl)c3C2)nc1 | > 75
Cc1ccc(N2CCc3ncnc(NCc4ccc(C(C)C)cc4)c3C2)nc1 | 0
Cc1ccc(N2CCc3ncnc(NCCc4ccc(Cl)c(Cl)c4)c3C2)nc1 | 50
Cc1ccc(N2CCc3ncnc(N(C)Cc4ccccc4)c3C2)nc1 | 0
COc1cc(CNc2ncnc3c2CN(c2ccc(C)cn2)CC3)cc(OC)c1 | 0
Cc1ccc(N2CCc3ncnc(NCc4ccc(OC(F)(F)F)cc4)c3C2)nc1 | 50
Cc1ccc(N2CCc3ncnc(NCc4ccc(Cl)cc4F)c3C2)nc1 | 50
Cc1ccc(N2CCc3ncnc(NCCc4ccc(Cl)cc4)c3C2)nc1 | > 75
COc1ccc(CN(C)c2ncnc3c2CN(c2ccc(C)cn2)CC3)cc1OC | 25
Cc1ccc(N2CCc3ncnc(NCc4cccc(Cl)c4)c3C2)nc1 | > 75

SMILES | inhibition [%]
COc1ccccc1CN(C)c1ncnc2c1CN(c1ccc(C)cn1)CC2 | 0
Cc1ccc(N2CCc3ncnc(NCc4cccc(F)c4)c3C2)nc1 | > 75
Cc1ccc(N2CCc3ncnc(NCc4cc(F)ccc4F)c3C2)nc1 | 50
Cc1ccc(N2CCc3ncnc(NCc4cccc(C)c4C)c3C2)nc1 | 0
Cc1ccc(CNc2ncnc3c2CN(c2ccc(C)cn2)CC3)cc1 | > 75
COc1cc(CCNc2ncnc3c2CN(c2ccc(C)cn2)CC3)cc(OC)c1 | 50
Cc1ccc(N2CCc3ncnc(NCc4cc(C(F)(F)F)ccc4F)c3C2)nc1 | 0
COc1ccc(CNc2ncnc3c2CN(c2ccc(C)cn2)CC3)cc1 | > 75
Cc1ccc(N2CCc3ncnc(N(C)Cc4cccc(Cl)c4)c3C2)nc1 | 0
Cc1ccc(CCNc2ncnc3c2CN(c2ccc(C)cn2)CC3)cc1 | > 75
Cc1ccc(N2CCc3ncnc(NCc4ccc(Cl)c(Cl)c4)c3C2)nc1 | 0
Cc1ccc(N2CCc3ncnc(NCc4cc(C(F)(F)F)ccc4Cl)c3C2)nc1 | 0
CCc1ccc(CN(C)c2ncnc3c2CN(c2ccc(C)cn2)CC3)cc1 | 0
Cc1ccc(N2CCc3ncnc(NCc4ccc(Cl)cc4Cl)c3C2)nc1 | 0
Cc1ccc(N2CCc3ncnc(NC(C)c4ccc(F)cc4)c3C2)nc1 (centres undefined) | > 75
Cc1ccc(N2CCc3ncnc(NCCc4ccccc4)c3C2)nc1 | > 75
COc1cccc(CN(C)c2ncnc3c2CN(c2ccc(C)cn2)CC3)c1 | 0
COc1ccc(CCNc2ncnc3c2CN(c2ccc(C)cn2)CC3)cc1OC | 50
Cc1ccc(N2CCc3ncnc(NCc4ccc(C(F)(F)F)cc4)c3C2)nc1 | > 75
Cc1ccc(N2CCc3ncnc(NCCc4cccc(C(F)(F)F)c4)c3C2)nc1 | > 75

SMILES | inhibition [%]
Cc1ccc(N2CCc3ncnc(NCc4ccccc4Cl)c3C2)nc1 | > 75
Cc1ccc(N2CCc3ncnc(NCc4cccc(C(F)(F)F)c4)c3C2)nc1 | 50
Cc1ccc(N2CCc3ncnc(NCc4ccc(Cl)cc4)c3C2)nc1 | > 75
Cc1ccc(N2CCc3ncnc(NCc4ccc(C(F)(F)F)cc4F)c3C2)nc1 | > 75
Cc1ccc(N2CCc3ncnc(NCc4cc(F)cc(C(F)(F)F)c4)c3C2)nc1 | 0
COc1cccc(CNc2ncnc3c2CN(c2ccc(C)cn2)CC3)c1 | > 75
Cc1ccc(N2CCc3ncnc(NCc4cc(C(F)(F)F)cc(C(F)(F)F)c4)c3C2)nc1 | 0
Cc1ccc(N2CCc3ncnc(NCc4cc(Cl)cc(Cl)c4)c3C2)nc1 | 0
Cc1ccc(N2CCc3ncnc(NCc4ccccc4C(F)(F)F)c3C2)nc1 | 50
Cc1ccc(N2CCc3ncnc(NCc4ccc(C)cc4C)c3C2)nc1 | 25
Cc1ccc(N2CCc3ncnc(N(C)Cc4ccc(F)cc4)c3C2)nc1 | 0
Cc1ccc(N2CCc3ncnc(NCc4ccccc4OC(F)(F)F)c3C2)nc1 | > 75
Cc1ccc(N2CCc3ncnc(NCc4ccc(F)c(C(F)(F)F)c4)c3C2)nc1 | 0
Cc1ccc(N2CCc3ncnc(N(C)Cc4ccc(C(F)(F)F)cc4)c3C2)nc1 | 0
O=S(=O)(c1ccc(Nc2ncnc3c2CN(c2ncccc2Cl)CC3)cc1)C(F)(F)F | 0
Cc1ccc(N2CCc3ncnc(NCc4ccc(F)c(C)c4)c3C2)nc1 | > 75
COc1cccc(CCNc2ncnc3c2CN(c2ccc(C)cn2)CC3)c1 | > 75
Clc1cccnc1N1CCc2ncnc(Nc3ccccc3)c2C1 | 0
Cc1ccc(N2CCc3ncnc(NCc4ccc(C(C)(C)C)cc4)c3C2)nc1 | 0

Each compound was assayed against T1, P2X2/P2X3 heterotrimeric receptor (Homo sapiens) (assay: Antagonist activity against human P2X2/3 receptor expressed in HEK293/1321N1 cells assessed as inhibition of alpha,beta-meATP/ATP-induced calcium influx at 10 uM by Fluo-4 dye based FLIPR assay).
Type: functional, cell-based

SMILES | inhibition [%]
CC1(C)C(=O)Nc2cc(Nc3ncnc4c3CN(c3ncccc3Cl)CC4)ccc21 | 0
Cc1ccc(N2CCc3ncnc(NCCc4ccccc4Cl)c3C2)nc1 | > 75
COc1ccc(CN(C)c2ncnc3c2CN(c2ccc(C)cn2)CC3)cc1OC | > 75
Cc1ccccc1N1CCc2ncnc(Nc3ccc(C(F)(F)F)cc3)c2C1 | 0
Cc1ccc(N2CCc3ncnc(NCC4CCCCC4)c3C2)nc1 | > 75
COc1ccccc1CNc1ncnc2c1CN(c1ccc(C)cn1)CC2 | > 75
Cc1ccc(N2CCc3ncnc(NCc4cc(C(F)(F)F)ccc4Cl)c3C2)nc1 | 0
Cc1ccc(N2CCc3ncnc(NCC4(O)CCCC(C)(C)C4)c3C2)nc1 (centres undefined) | 0
FC(F)(F)c1ccc(Nc2ncnc3c2CN(c2ncccc2Cl)CC3)cn1 | 0
CC1(C)CNc2cc(Nc3ncnc4c3CN(c3ncccc3Cl)CC4)ccc21 | 0
Cc1ccc(N2CCc3ncnc(Nc4ccc(C(F)(F)F)cc4)c3C2)cc1 | 0
Cc1ccc(N2CCc3ncnc(NCCc4cccc(C(F)(F)F)c4)c3C2)nc1 | > 75
COc1cccc(CNc2ncnc3c2CN(c2ccc(C)cn2)CC3)c1 | > 75
Cc1ccc(N2CCc3ncnc(N(C)Cc4ccc(F)cc4)c3C2)nc1 | 50
Cc1ccc(N2CCc3ncnc(NCc4ccccc4C)c3C2)nc1 | > 75

From ChEMBL document CHEMBL3727362, “Tetrahydronaphthyridine and tetrahydropyrido[4,3-D]pyrimidine compounds and compositions thereof useful for the treatment of inflammatory and respiratory diseases” (2014)
